These results are taken from patent US20040175691A1, “Use of the KCNQ2 and KCNQ3 genes for the discovery of agents useful in the treatment of neurological disorders” (priority 1998, published 2004).

Experiment [1] addresses T1, KCNQ2 + KCNQ3 (UniProt O43526+O88944, DEL417-446).
T1 construct: Full-length KCNQ2 cDNAs were amplified from adult human brain cDNA; Multiple full-length cDNA clones were amplified in independent PCR reactions from rat SCG cDNA; expressed in transfected cells; host or cells: Xenopus oocytes injected with cRNA
Kind of experiment: Blockade of KCNQ2+KCNQ3 channels expressed in Xenopus oocytes. In kind it is cell-based, human KCNQ2, rat KCNQ3. Here is the method:
(§1) Method: Full-length KCNQ2 cDNAs were amplified from adult human brain cDNA using the following primers ([…], […]) with the Expand Fidelity enzyme mixture (Boehringer Mannheim, Indianapolis). […] This region is also alternatively spliced in the KCNQ2 cDNA clone described by Biervert et al. (1998). Preparation, injection of cRNA and recording from oocytes was performed at room temperature as described previously (Dixon et al. 1996). The standard extracellular recording solution contained: 82 mM NaCl, 2 mM KCl, 1.8 mM CaCl2, 1 mM MgCl2, and 5 mM Na-HEPES (pH 7.6). Data collection and analysis were performed using pClamp software (Axon Instruments, Foster City, Calif.).
Holding potential was −60 mV and the cell was repetitively depolarized to −30 mV for 1 minute to reach steady-state blockade. Tail currents were recorded at −50 mV.
IC50 values are all expressed in μM, mean±s.e.m. In cases where the IC50 values were greater than 100 μM the exact value is not reported due to limited solubility in the drug.

In experiment [2] the target is KCNQ2 (Homo sapiens, UniProt O43526, DEL417-446). Kind of experiment: Blockade of KCNQ2 channels expressed in Xenopus oocytes. The conditions noted are these: homomultimeric KCNQ2, oocytes; Hill coefficient set to unity; read-out: KD for TEA block of KCNQ2 channels. The arrangement: Full-length KCNQ2 cDNAs were amplified from adult human brain cDNA; expressed in transfected cells; host or cells: Xenopus oocytes injected with cRNA. Type of experiment: cell-based. The procedure: as §1
IC50 values are all expressed in μM, mean±s.e.m.

Experiment [3] addresses T2, M-current (Rattus norvegicus, UniProt O88943+O88944).
T2 construct: from tissue
The experiment in a line: Blockade of native M-current in SCG neurons (voltage clamp, intact ganglia). In kind it is cell-based. The conditions noted are these: rat sympathetic neurons; read-out: KD for TEA blockade of native M-current. The procedure: Method: Recordings of the M-current in sympathetic neurons in intact ganglia were performed at room temperature as described previously (Wang and McKinnon, 1995). The standard extracellular recording solution was: NaCl (133 mM, KCl (4.7 mM), NaH2PO4 (1.3 mM), NaHCO3 (16.3 mM), CaCl2 (2 mM), MgCl2 (1.2 mM) and glucose (1.4 g/liter), bubbled with 95% O2-5% CO2 to give pH 7.2-7.4.
A. Blockade of M-current in SCG neurons by XE991. Holding potential was −30 mV and step potential was −50 mV for 1 second. The shift in holding current following drug application is due to the inhibition of M-current activated at the holding potential.
Maximal block of native M-current was 93±2%. Data points are averages and error bars represent s.e.m.

Experiment [4] has as its target T3, hKCNQ2 potassium channel (Homo sapiens, UniProt O43526, DEL417-446).
T3 construct: Full-length hKCNQ2 cDNAs were amplified from adult human brain cDNA; expressed in transfected cells; host or cells: 293 EBNA (HEK 293E) cells, episomal plasmid pm3AR-hKCNQ2-1, hygromycin B selection
Kind of experiment: Membrane potential-evoked fluorescence (FLIPR, DiBAC) in HEK 293E cells stably expressing hKCNQ2. In kind it is cell-based. The conditions noted are these: FIG. 7. The procedure: The ability of KCNQ2 modulators to alter membrane potential was assessed using a fluorescence imaging plate reader (FLIPR). Cultured HEK 293E cells expressing hKCNQ2 channels are plated on poly-D-lysine-coated 96-well Costar microplates (#3603) at 300,000-750,000 cells/ml and allowed to reach confluence in DMEM (with 10% FBS and 250 ug/ml hygromycin B) at 37° C. and 5% CO2. After reaching confluence, growth medium is removed, replaced with a standard Hank's balanced salt solution containing 5 uM dibac(4)3, bis-oxonol (Molecular Probes # B-438) at 37° C. The cell plate is then placed in the recording chamber (equilibrated to 37° C.) of a fluorescence imaging plate reader (FLIPR; Molecular Devices) along with two drug plates (one containing standard Hank's balanced salt solution+dibac and the other containing standard Hank's balanced salt solution+dibac+test compound at various experimental concentrations).
These cells were loaded with the voltage-sensitive fluorescent dye, DiBAC, that distributes across cell membranes in a voltage-dependent manner. As cells depolarize (become more positive inside), more dye enters the cells and an increase in fluorescence occurs.
In FIG. 7, the relative effects of several M-current modulators on the flourescence of HEK 293E cells stably expressing the hKCNQ2 potassium channel is shown. These cells were loaded with the voltage-sensitive fluorescent dye, DiBAC, that distributes across cell membranes in a voltage-dependent manner. As cells depolarize, more dye enters the cells and an increase in fluorescence occurs. Conversely, as cells hyperpolarize (become more negative inside), more dye leaves the cells and a decrease in fluorescence occurs.

In the case of `CC[N+](CC)(CC)CC` [TEA, tetraethylammonium], the Kd was determined as 3.5 ± 0.7 mM in experiment [1] (co-injection of KCNQ2 and KCNQ3 mRNAs, read-out: KD for TEA block of KCNQ2+KCNQ3 channels); 0.16 ± 0.02 mM in experiment [2]; 6.1 mM in experiment [3]. The “Hill coefficient of TEA block of KCNQ2+KCNQ3 channels” value in experiment [1] (dose response fitted with Hill equation) turned out to be 0.82±0.03.

Consider `Nc1ccc(CC2(Cc3ccc(N)cc3)C(=O)N(c3ccccc3)c3ccccc32)cc1` [X7315], for which the entries for the “Relative effect on fluorescence / membrane potential” value in experiment [4] (3 μM) and in experiment [4] (100 μM) were “no effect” and “apparent membrane hyperpolarization”, respectively.

Take `O=C1c2ccccc2C(Cc2ccnc(F)c2)(Cc2ccnc(F)c2)c2ccccc21` [XR543]: the “Relative effect on fluorescence / membrane potential” value in experiment [4] (3 μM) is “more membrane depolarization than linopirdine”.
